molecular target: T1, Recombinant human TNF-alpha (Homo sapiens, UniProt P01375); assay: Inhibitory effect on cytotoxicity by TNF-alpha in L929 cells (Example 12); format: cell-based, mouse; conditions: actinomycin D 2.12 micro M, TNF-alpha 1 ng/mL, 24 hours
T1 construct: purchased Life Technologies
Procedure: Actinomycin D at the final concentration of 2.12 micro M, recombinant human TNF-alpha (Life Technologies) at the final concentration of 1 ng/mL, and serially diluted conjugates generated in Example 7 were added to the medium of L929, a mouse-derived cell line, and the cells were cultured for 24 hours at 37 deg C. Subsequently, the number of live cells were measured using a commercially available kit (model “CellTiter96 (Trademark),” Promega), and the cell survival rate was determined. Another experiment, where a commercially available anti-TNF formulation (Etanercept, soluble TNF receptor, product name “ Enbrel (registered trademark),” Takeda Pharmaceutical Company) was used instead of the conjugate generated in Example 7, was also performed as a control.

T1 sequence (P01375 77-233 limits assumed): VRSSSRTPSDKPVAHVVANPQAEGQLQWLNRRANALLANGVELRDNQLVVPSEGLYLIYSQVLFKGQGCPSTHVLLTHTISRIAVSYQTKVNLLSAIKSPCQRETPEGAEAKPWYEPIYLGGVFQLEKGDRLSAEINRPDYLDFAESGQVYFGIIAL

Compound | cytotoxicity inhibitory activity (cell survival rate)
Etanercept | approximately equivalent cytotoxicity inhibitory activities

molecular target: T2, Recombinant human intelectin-1 (Homo sapiens, UniProt Q8WWA0, V109D); assay: Inhibition of the binding of intelectin to a 3-amino-1-propanediol sensor chip by various compounds (Biacore, Example 3); conditions: not given
T2 sequence (Q8WWA0 19-298 V109D): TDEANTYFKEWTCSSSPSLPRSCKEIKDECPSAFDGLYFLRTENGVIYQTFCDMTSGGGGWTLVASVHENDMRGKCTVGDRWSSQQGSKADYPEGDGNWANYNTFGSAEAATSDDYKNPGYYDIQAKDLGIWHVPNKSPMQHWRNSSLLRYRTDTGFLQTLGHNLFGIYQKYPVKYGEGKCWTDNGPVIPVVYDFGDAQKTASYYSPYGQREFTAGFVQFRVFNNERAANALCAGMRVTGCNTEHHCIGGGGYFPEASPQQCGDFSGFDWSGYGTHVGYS
Procedure: The binding of purified intelectin to a sensor chip to which 3-amino-1-propanediol is fixed via an amino group was measured using Biacore (GE Healthcare Biosciences) under the presence of various kinds of compounds that were serially diluted. Recombinant human intelectin-1 was used as intelectin. The above-mentioned compound was a compound containing or not containing a diol group. Specifically, the compound was glycerol, 1,2-propanediol, 1,3-propanediol, 1-propanol, ethylene glycol, ethanol, 2-methoxyethanol, galactose, 2-acetamido-2-deoxy-4-O-beta-D-galactopyranosyl-D-glucopyranose (Galp-GlcNAc), 2-acetamido-2-deoxy-4-O-beta-D-galactofuranosyl-D-glucopyranose (Galf-GlcNAc), D-ribose, or L-ribose.
Intelectin was used at the final concentration of 0.5 microgram/mL. 10 mM HEPES (pH 7.0) containing 1 mM CaCl2, 150 mM NaCl, and 0.03% Tween 20 was used as the measuring buffer. The binding of intelectin measured using the sample that was not added with an above-mentioned compound was considered 100%, and the binding of intelectin in each sample was measured.

Compound | IC50 [mM]
OCCCCO [1,4-butanediol] | > 100
O=C(CO)[C@@H](O)[C@H](O)[C@H](O)CO [D-fructose] | 9
O=C[C@H](O)[C@@H](O)[C@@H](O)[C@H](O)CO [D-galactose] | 11
O=C[C@H](O)[C@@H](O)[C@H](O)[C@H](O)CO [D-glucose] | 18
O=C[C@@H](O)[C@@H](O)[C@H](O)[C@H](O)CO [D-mannose] | 16
O=C(CO)[C@@H](O)[C@H](O)[C@@H](O)CO [L-sorbose] | 14
OCCO [ethylene glycol] | 2.2

same assay, conditions: Biacore; intelectin 0.5 microgram/mL; sensor chip with 3-amino-1-propanediol fixed; 10 mM HEPES pH 7.0, 1 mM CaCl2; read-out: IC50 for inhibition of the binding of intelectin and the diol group

Compound | IC50 [mM]
CCC(O)CO (stereo not drawn) [1,2-butanediol] | 0.8
CC(O)CO (stereo not drawn) [1,2-propanediol] | 0.9
CC(O)CCO (stereo not drawn) [1,3-butanediol] | 35
OCCCO [1,3-propanediol] | 30
CCCO [1-propanol] | > 100
COC1(C(=O)O)C[C@H](O)[C@@H](NC(C)=O)[C@H]([C@H](O)[C@H](O)CO)O1 (stereo partly drawn) [2-O-methyl-D-N-acetylneuraminic acid] | 6
O=CC[C@@H](O)[C@@H](O)[C@H](O)CO [2-deoxygalactose] | 1.1
O=CC[C@H](O)[C@H](O)CO [2-deoxyribose] | 1.8
COCCO [2-methoxyethanol] | > 100
NCC(O)CO (stereo not drawn) [3-amino-1,2-propanediol] | 1.8
NCCCO [3-amino-1-propanol] | > 100
C[C@@H](O)CO [(R)-1,2-propanediol] | 1
C[C@@H](O)[C@@H](C)O [(R,R)-2,3-butanediol] | 5
C[C@H](O)CO [(S)-1,2-propanediol] | 1.2
C[C@H](O)[C@H](C)O [(S,S)-2,3-butanediol] | 5
O=P(O)(O)OC(CO)CO [Beta-glycerophosphate] | > 100
O=C[C@@H](O)[C@H](O)[C@H](O)CO [D-arabinose] | 30
C[C@@H](O)[C@H](O)[C@H](O)[C@@H](O)C=O [D-fucose] | 60
O=C[C@@H](O)[C@@H](O)[C@H](O)CO [D-lyxose] | 22
O=C[C@H](O)[C@H](O)[C@H](O)CO [D-ribose] | 0.5

Compound | IC50 [mM]
O=C[C@H](O)[C@@H](O)[C@H](O)CO [D-xylose] | 3.3
NCCO [Ethanolamine] | > 100
CC(=O)N[C@H]1C(O)O[C@H](CO)[C@@H](O[C@@H]2O[C@@H]([C@H](O)CO)[C@H](O)[C@H]2O)[C@@H]1O (stereo partly drawn) [Galf-GlcNAc, 2-acetamido-2-deoxy-4-O-beta-D-galactofuranosyl-D-glucopyranose] | 1.4
CC(=O)N[C@H]1C(O)O[C@H](CO)[C@@H](O[C@@H]2O[C@H](CO)[C@H](O)[C@H](O)[C@H]2O)[C@@H]1O (stereo partly drawn) [Galp-GlcNAc, 2-acetamido-2-deoxy-4-O-beta-D-galactopyranosyl-D-glucopyranose] | 13
O=C[C@H](O)[C@@H](O)[C@@H](O)CO [L-arabinose] | 22
O=C1O[C@H]([C@@H](O)CO)C(O)=C1O [L-ascorbic acid] | 0.8
C[C@H](O)[C@@H](O)[C@@H](O)[C@H](O)C=O [L-fucose] | > 100
O=C[C@H](O)[C@H](O)[C@@H](O)CO [L-lyxose] | 13
C[C@H](O)[C@H](O)[C@@H](O)[C@@H](O)C=O [L-rhamnose] | 30
O=C[C@@H](O)[C@@H](O)[C@@H](O)CO [L-ribose] | 0.3
O=C[C@@H](O)[C@H](O)[C@@H](O)CO [L-xyrose] | 9
CC(=O)N[C@H]1C(O)O[C@H](CO)[C@@H](O)[C@@H]1O (stereo partly drawn) [N-acetylglucosamine] | 50
NC(CO)(CO)CO [Tris] | 14
O=P(O)(O)OCC(O)CO (stereo not drawn) [alpha-glycerophosphate] | 1.2
CCO [ethanol] | > 100
OCC(O)CO [glycerol] | 0.8
C[C@H](O)[C@@H](C)O [meso-2,3-butanediol] | 1.8
CCCC(=O)OCC(O)CO (stereo not drawn) [monobutyrin] | 0.8
OC[C@@H](O)[C@@H](O)[C@@H](O)CO [ribitol] | 1.2

molecular target: T2, Recombinant human intelectin-1; assay: Binding of monoacylglycerol and intelectin (precipitation, SDS-PAGE, Example 5); conditions: lipid 100 micro M in medium containing intelectin, 15 minutes at 37 deg C
Procedure: Monoacylgrycerols such as monopalmitin and monoolein are used as a component of micelles or liposomes. 1-monopalmitin, 2-monopalmitin, or 1-palmitoyl lysophosphatidic acid as a negative control at the final concentration of 100 micro M was added to 500 microliters of a medium containing intelectin, and the medium was stirred intensely and incubated for 15 minutes at 37 deg C. Recombinant human intelectin-1 was used as intelectin. By the above-mentioned procedures, it is expected that insoluble aggregates having a micelle-like structure with the diol group facing outwards and the acyl group facing inwards are formed and intelectin binds on the surface.
Subsequently, the samples were cooled for 15 minutes at 4 deg C. and centrifuged, and the precipitation was collected, washed once with buffer, and dissolved in sample buffer. Samples were then separated by SDS-PAGE and stained with Coomassie Brilliant Blue.

Compound | binding of intelectin to the lipid (SDS-PAGE)
CCCCCCCCCCCCCCCC(=O)OCC(O)CO (stereo not drawn) [1-monopalmitin] | bound
CCCCCCCCCCCCCCCC(=O)OCC(O)COP(=O)(O)O (stereo not drawn) [1-palmitoyl lysophosphatidic acid] | only slightly
CCCCCCCCCCCCCCCC(=O)OC(CO)CO [2-monopalmitin] | bound

molecular target: IL-6 protein (Homo sapiens, UniProt P05231); assay: ELISA on IL-6 protein with the conjugate of antibody Fab fragment and intelectin (Example 8); format: binding; conditions: conjugate as primary antibody; HRP-labeled anti-intelectin-1 antibody 2D2
Sequence (P05231 30-212): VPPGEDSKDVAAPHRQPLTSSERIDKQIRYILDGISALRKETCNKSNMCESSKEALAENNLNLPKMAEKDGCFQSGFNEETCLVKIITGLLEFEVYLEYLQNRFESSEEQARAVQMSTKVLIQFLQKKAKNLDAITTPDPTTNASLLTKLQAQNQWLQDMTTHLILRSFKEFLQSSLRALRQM
Procedure: An ELISA analysis on IL-6 protein was performed using the conjugate generated in Example 6.
More specifically, IL-6 protein was adsorbed on an ELISA plate, and the conjugate generated in Example 6 was used for reaction as the primary antibody, and the horseradish peroxidase-labeled anti-intelectin-1 monoclonal antibody (2D2) was used for reaction as the secondary antibody. The detection was conducted using 3,3′,5,5′-tetramethylbenzidine.

Compound | binding to IL-6 protein (ELISA)
conjugate generated in Example 6: H chain Fab region of anti-IL-6 monoclonal antibody MH166 joined via one glycine to human intelectin-1 (S165A), co-expressed with MH166 L chain | bind to IL-6 protein

molecular target: T1, Recombinant human TNF-alpha; assay: Affinity between the conjugate of TNFR2 and intelectin and TNF-alpha (Biacore, Example 11); format: binding; conditions: TNF-alpha as analyte, ligand fixed to sensor chip
Procedure: The binding affinity between the conjugate generated in Example 7 and TNF-alpha was measured using Biacore (GE Healthcare Biosciences). The binding affinity between a commercially available anti-TNF formulation (Etanercept, soluble TNF receptor, product name “ Enbrel (registered trademark),” Takeda Pharmaceutical Company) and TNF-alpha was also measured as a control.
Recombinant human TNF-alpha (Life Technologies) was used as TNF-alpha.

Compound | association rate constant Ka [M⁻¹ s⁻¹] | dissociation rate constant Kd [s⁻¹]
Etanercept | 1.09e+06 | 0.000342

same assay, conditions: TNF-alpha as analyte, ligand fixed to sensor chip; read-out: dissociation constant KD

Compound | Kd [nM]
Etanercept | 0.313
